Data published in US9994570B2, “Bridged diazepane orexin receptor antagonists” (MERCK SHARP & DOHME CORP., priority 2014, dated 2018).

Tests used:
[1] = target: T1, human orexin-2 receptor (Homo sapiens, UniProt O43614); assay: FLIPR Ca2+ flux assay, OX2R; assay type: cell-based; settings: for IC50: CHO cells expressing the human orexin-2 receptor, agonist 70 pM Ala-6,12 orexin-A; for Fold Selective: OX1R FLIPR / OX2R FLIPR
T1 construct: expressed in transfected cells; host or cells: CHO cells (grown under G418 selection)
T1 sequence (O43614 1-444): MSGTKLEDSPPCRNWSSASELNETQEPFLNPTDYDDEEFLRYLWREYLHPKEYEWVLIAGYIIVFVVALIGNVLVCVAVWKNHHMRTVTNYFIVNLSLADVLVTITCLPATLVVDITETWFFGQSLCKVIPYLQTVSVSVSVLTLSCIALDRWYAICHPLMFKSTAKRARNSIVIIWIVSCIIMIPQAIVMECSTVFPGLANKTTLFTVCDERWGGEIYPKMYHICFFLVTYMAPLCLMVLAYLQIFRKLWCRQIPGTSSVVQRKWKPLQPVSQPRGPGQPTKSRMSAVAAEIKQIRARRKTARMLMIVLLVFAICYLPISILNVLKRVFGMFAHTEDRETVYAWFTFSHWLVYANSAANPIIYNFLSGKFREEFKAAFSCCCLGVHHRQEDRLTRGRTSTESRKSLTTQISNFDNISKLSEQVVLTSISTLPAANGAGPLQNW
Experimental: (§1) The utility of the compounds in accordance with the present invention as orexin receptor OX1R and/or OX2R antagonists may be readily determined without undue experimentation by methodology well known in the art, including the “FLIPR Ca^2+ Flux Assay” (Okumura et al., Biochem. Biophys. Res. Comm. 280:976-981, 2001). In a typical experiment the OX1 and OX2 receptor antagonistic activity of the compounds of the present invention was determined in accordance with the following experimental method. For intracellular calcium measurements, Chinese hamster ovary (CHO) cells expressing the rat orexin-1 receptor or the human orexin-2 receptor, are grown in Iscove's modified DMEM containing 2 mM L-glutamine, […], 1% hypoxanthine-thymidine supplement, 100 U/ml penicillin, 100 μg/ml streptomycin and 10% heat-inactivated fetal calf serum (FCS). The cells are seeded at 20,000 cells/well into Becton-Dickinson black 384-well clear bottom sterile plates coated with poly-D-lysine. All reagents were from GIBCO-Invitrogen Corp. The seeded plates are incubated overnight at 37° C. and 5% CO2. Ala-6,12 human orexin-A as the agonist is prepared as a 1 mM stock solution in 1% bovine serum albumin (BSA) and diluted in assay buffer (HBSS containing 20 mM HEPES, 0.1% BSA and 2.5 mM probenecid, pH7.4) for use in the assay at a final concentration of 70 pM. Test compounds are prepared as 10 mM stock solution in DMSO, then diluted in 384-well plates, first in DMSO, then assay buffer. On the day of the assay, cells are washed 3 times with 100 μl assay buffer and then incubated for 60 min (37° C., 5% CO2) in 60 μl assay buffer containing 1 μM Fluo-4AM ester, 0.02% pluronic acid, and 1% BSA. The dye loading solution is then aspirated and cells are washed 3 times with 100 μl assay buffer. 30 μl of that same buffer is left in each well. Within the Fluorescent Imaging Plate Reader (FLIPR, Molecular Devices), test compounds are added to the plate in a volume of 25 μl, incubated for 5 min and finally 25 μl of agonist is added. Fluorescence is measured for each well at 1 second intervals for 5 minutes and the height of each fluorescence peak is compared to the height of the fluorescence peak induced by 70 pM Ala-6,12 orexin-A with buffer in place of antagonist. For each antagonist, IC50 value (the concentration of compound needed to inhibit 50% of the agonist response) is determined. Alternatively, compound potency can be assessed by a radioligand binding assay (described in Bergman et. al. Bioorg. Med. Chem. Lett. 2008, 18, 1425-1430) in which the inhibition constant (Ki) is determined in membranes prepared from CHO cells expressing either the OX1 or OX2 receptor. The intrinsic orexin receptor antagonist activity of a compound which may be used in the present invention may be determined by these assays.

[2] = target: T2, rat orexin-1 receptor (Rattus norvegicus, UniProt P56718); assay: FLIPR Ca2+ flux assay, OX1R; assay type: cell-based; settings: CHO cells expressing the rat orexin-1 receptor; agonist 70 pM Ala-6,12 orexin-A
T2 construct: expressed in transfected cells; host or cells: CHO cells (grown under G418 selection)
T2 sequence (P56718 1-416): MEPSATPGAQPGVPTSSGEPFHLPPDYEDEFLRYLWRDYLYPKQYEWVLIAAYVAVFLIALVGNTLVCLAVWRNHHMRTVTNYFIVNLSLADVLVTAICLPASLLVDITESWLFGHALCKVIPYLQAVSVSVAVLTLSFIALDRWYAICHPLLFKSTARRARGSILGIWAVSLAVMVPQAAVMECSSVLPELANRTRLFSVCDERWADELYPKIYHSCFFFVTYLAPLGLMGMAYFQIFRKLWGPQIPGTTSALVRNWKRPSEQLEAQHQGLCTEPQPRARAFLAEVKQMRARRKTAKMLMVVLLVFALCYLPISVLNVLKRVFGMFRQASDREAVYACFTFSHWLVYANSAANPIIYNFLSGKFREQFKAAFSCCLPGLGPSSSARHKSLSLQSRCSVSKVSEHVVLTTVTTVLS
Experimental: as §1

Row | SMILES | IC50 [1] | Fold Selective [1] | IC50 [2]
1 | Cc1cc(C)nc(N2CC3CC2CN(C(=O)c2cccnc2N(C)CC(F)F)C3)n1 (single isomer, unassigned) [Example 47] | 0.029 µM | 261 | 7.56 µM
2 | Cc1cc(C#N)nc(N2CC3CC2CN(C(=O)c2ccccc2CC(F)(F)F)C3)n1 (stereo not drawn) [Example 1, 6-methyl-2-(3-(2-(2,2,2-trifluoroethyl)benzoyl)-3,6-diazabicyclo[3.2.1]octan-6-yl)pyrimidine-4-carbonitrile] | 0.023 µM | 81 | 1.87 µM
3 | Cc1cc(C#N)nc(N2CC3CC2CN(C(=O)c2ccccc2OC(F)F)C3)n1 (stereo not drawn) [Example 2, 2-(3-(2-(difluoromethoxy)benzoyl)-3,6-diazabicyclo[3.2.1]-octan-6-yl)-6-methylpyrimidine-4-carbonitrile] | 0.046 µM | >217 | > 10 µM
4 | Cc1cc(C#N)nc(N2CC3CC2CN(C(=O)c2ccccc2OCC(F)(F)F)C3)n1 (stereo not drawn) [Example 3, 6-methyl-2-(3-(2-(2,2,2-trifluoroethoxy)benzoyl)-3,6-diazabicyclo[3.2.1]octan-6-yl)pyrimidine-4-carbonitrile] | 0.018 µM | 178 | 3.21 µM
5 | Cc1cc(C#N)nc(N2CC3CC2CN(C(=O)c2cccnc2OCC(F)F)C3)n1 (stereo not drawn) [Example 4, 2-(3-{[2-(2,2-difluoroethoxy)pyridin-3-yl]carbonyl}-3,6-diazabicyclo[3.2.1]oct-6-yl)-6-methylpyrimidine-4-carbonitrile] | 0.019 µM | 174 | 3.3 µM
6 | Cc1cc(C#N)nc(N2CC3CC2CN(C(=O)c2cccnc2C2CC2)C3)n1 (stereo not drawn) [Example 5, 2-(3-(2-cyclopropylnicotinoyl)-3,6-diazabicyclo[3.2.1]octan-6-yl)-6-methylpyrimidine-4-carbonitrile] | 0.081 µM | >123 | > 10 µM
7 | Cc1cc(C#N)nc(N2CC3CC2CN(C(=O)c2ccccc2CS(C)(=O)=O)C3)n1 (stereo not drawn) [Example 7, 6-methyl-2-(3-(2-((methylsulfonyl)methyl)benzoyl)-3,6-diazabicyclo[3.2.1]octan-6-yl)pyrimidine-4-carbonitrile] | 0.061 µM | >164 | > 10 µM
8 | Cc1cc(C)nc(N2CC3CC2CN(C(=O)c2cc(F)cnc2C2CC2)C3)n1 (stereo not drawn) [Example 8] | 0.029 µM | 202 | 5.86 µM
9 | Cc1cc(C)nc(N2CC3CC2CN(C(=O)c2cccnc2OCC(F)F)C3)n1 (stereo not drawn) [Example 9, (2-(2,2-difluoroethoxy)pyridin-3-yl)(6-(4,6-dimethylpyrimidin-2-yl)-3,6-diazabicyclo[3.2.1]octan-3-yl)methanone] | 0.015 µM | 122 | 1.83 µM
10 | COCc1ccccc1C(=O)N1CC2CC(C1)N(c1nc(C)cc(C)n1)C2 (stereo not drawn) [Example 10, (6-(4,6-dimethylpyrimidin-2-yl)-3,6-diazabicyclo[3.2.1]octan-3-yl)(2-(methoxymethyl)phenyl)methanone] | 0.046 µM | 74 | 3.41 µM
11 | Cc1cc(C)nc(N2CC3CC2CN(C(=O)c2ccccc2C2CC2)C3)n1 (stereo not drawn) [Example 11, 3-[(2-cyclopropylphenyl)-carbonyl]-6-(4,6-dimethylpyrimidin-2-yl)-3,6-diazabicyclo[3.2.1]octane] | 0.013 µM | 47 | 0.613 µM
12 | Cc1cc(C)nc(N2CC3CC2CN(C(=O)c2cc(F)ccc2C2CC2)C3)n1 (stereo not drawn) [Example 12, 3-[(2-cyclopropyl-5-fluorophenyl)carbonyl]-6-(4,6-dimethylpyrimidin-2-yl)-3,6-diazabicyclo[3.2.1]octane] | 0.022 µM | 47 | 1.03 µM
13 | COc1ccc(C(=O)N2CC3CC(C2)N(c2nc(C)cc(C)n2)C3)c(C2CC2)n1 (stereo not drawn) [Example 13, 3-[(2-cyclopropyl-6-methoxypyridin-3-yl)carbonyl]-6-(4,6-dimethylpyrimidin-2-yl)-3,6-diazabicyclo[3.2.1]octane] | 0.041 µM | 87 | 3.55 µM
14 | Cc1cc(C)nc(N2CC3CC2CN(C(=O)c2ccc(F)cc2C2CC2)C3)n1 (stereo not drawn) [Example 14, 3-[(2-cyclopropyl-4-fluorophenyl)carbonyl]-6-(4,6-dimethylpyrimidin-2-yl)-3,6-diazabicyclo[3.2.1]octane] | 0.026 µM | 56 | 1.45 µM
15 | Cc1cc(C)nc(N2CC3CC2CN(C(=O)c2ccccc2OC(F)(F)F)C3)n1 (stereo not drawn) [Example 15, 6-(4,6-dimethylpyrimidin-2-yl)-3-{[2-(trifluoromethoxy)-phenyl]carbonyl}-3,6-diazabicyclo[3.2.1]octane] | 0.03 µM | 51 | 1.53 µM
16 | Cc1cc(C)nc(N2CC3CC2CN(C(=O)c2ccccc2OC(C)C)C3)n1 (stereo not drawn) [Example 16, 6-(4,6-dimethylpyrimidin-2-yl)-3-{[2-(1-methylethoxy)-phenyl]carbonyl}-3,6-diazabicyclo[3.2.1]octane] | 0.016 µM | 61 | 0.982 µM
17 | CSc1ccccc1C(=O)N1CC2CC(C1)N(c1nc(C)cc(C)n1)C2 (stereo not drawn) [Example 17, 6-(4,6-dimethylpyrimidin-2-yl)-3-{[2-(methylsulfanyl)-phenyl]carbonyl}-3,6-diazabicyclo[3.2.1]octane] | 0.027 µM | 92 | 2.47 µM
18 | Cc1cc(C)nc(N2CC3CC2CN(C(=O)c2ccccc2C2(F)CC2)C3)n1 (stereo not drawn) [Example 18, 6-(4,6-dimethylpyrimidin-2-yl)-3-{[2-(1-fluorocyclopropyl)-phenyl]carbonyl}-3,6-diazabicyclo[3.2.1]octane] | 0.015 µM | 58 | 0.872 µM
19 | Cc1cc(C)nc(N2CC3CC2CN(C(=O)c2ccccc2-n2ncnn2)C3)n1 (stereo not drawn) [Example 19, 6-(4,6-dimethylpyrimidin-2-yl)-3-{[2-(2H-tetrazol-2-yl)phenyl]carbonyl}-3,6-diazabicyclo[3.2.1]octane] | 0.036 µM | 44 | 1.6 µM
20 | Cc1cc(C)nc(N2CC3CC2CN(C(=O)c2nccnc2-n2cccn2)C3)n1 (stereo not drawn) [Example 20, 6-(4,6-dimethylpyrimidin-2-yl)-3-{[3-(1H-pyrazol-1-yl)pyrazin-2-yl]carbonyl}-3,6-diazabicyclo[3.2.1]octane] | 0.05 µM | 68 | 3.4 µM
21 | Cc1cc(C)nc(N2CC3CC2CN(C(=O)c2cccnc2OC(C)C)C3)n1 (stereo not drawn) [Example 21, 6-(4,6-dimethylpyrimidin-2-yl)-3-{[2-(1-methylethoxy)pyridin-3-yl]carbonyl}-3,6-diazabicyclo[3.2.1]octane] | 0.018 µM | 148 | 2.67 µM
